Results taken from ChEMBL document CHEMBL5678810.

Key:
[1] = test system: Tyrosine-protein kinase ABL1 (Homo sapiens), P00519 [Y253F]; assay: Inhibition of T7 bacteriophage fused human phosphorylated ABL1 Y253F mutant at 10 uM by KINOMEscan analysis relative to control
[2] = target: Activin receptor type-1-like (Homo sapiens) (UniProt P37023); assay: Inhibition of T7 bacteriophage fused human ACVRL1 at 10 uM by KINOMEscan analysis relative to control
[3] = target: Atypical kinase COQ8B, mitochondrial (Homo sapiens) (UniProt Q96D53); assay: Inhibition of T7 bacteriophage fused human ADCK4 at 10 uM by KINOMEscan analysis relative to control
[4] = target: NUAK family SNF1-like kinase 1 (Homo sapiens) (UniProt O60285); assay: Inhibition of T7 bacteriophage fused human ARK5 at 10 uM by KINOMEscan analysis relative to control
[5] = target: BMP-2-inducible protein kinase (Homo sapiens) (UniProt Q9NSY1); assay: Inhibition of T7 bacteriophage fused human BIKE at 10 uM by KINOMEscan analysis relative to control
[6] = target: Calcium/calmodulin-dependent protein kinase type 1D (Homo sapiens) (UniProt Q8IU85); assay: Inhibition of T7 bacteriophage fused human CAMK1D at 10 uM by KINOMEscan analysis relative to control
[7] = target: Dual specificity protein kinase CLK4 (Homo sapiens) (UniProt Q9HAZ1); assay: Inhibition of T7 bacteriophage fused human CLK4 at 10 uM by KINOMEscan analysis relative to control
[8] = target: Casein kinase I isoform alpha-like (Homo sapiens) (UniProt Q8N752); assay: Inhibition of T7 bacteriophage fused human CSNK1A1L at 10 uM by KINOMEscan analysis relative to control
[9] = target: Myotonin-protein kinase (Homo sapiens) (UniProt Q09013); assay: Inhibition of T7 bacteriophage fused human DMPK at 10 uM by KINOMEscan analysis relative to control
[10] = target: Ephrin type-A receptor 6 (Homo sapiens) (UniProt Q9UF33); assay: Inhibition of T7 bacteriophage fused human EPHA6 at 10 uM by KINOMEscan analysis relative to control
[11] = target: Receptor tyrosine-protein kinase erbB-3 (Homo sapiens) (UniProt P21860); assay: Inhibition of T7 bacteriophage fused human ERBB3 at 10 uM by KINOMEscan analysis relative to control
[12] = target: Tyrosine-protein kinase HCK (Homo sapiens) (UniProt P08631); assay: Inhibition of T7 bacteriophage fused human HCK at 10 uM by KINOMEscan analysis relative to control
[13] = target: Serine/threonine-protein kinase MRCK beta (Homo sapiens) (UniProt Q9Y5S2); assay: Inhibition of T7 bacteriophage fused human MRCKB at 10 uM by KINOMEscan analysis relative to control
[14] = target: Serine/threonine-protein kinase Nek7 (Homo sapiens) (UniProt Q8TDX7); assay: Inhibition of T7 bacteriophage fused human NEK7 at 10 uM by KINOMEscan analysis relative to control
[15] = target: Serine/threonine-protein kinase NIM1 (Homo sapiens) (UniProt Q8IY84); assay: Inhibition of T7 bacteriophage fused human NIM1 at 10 uM by KINOMEscan analysis relative to control
[16] = target: Serine/threonine-protein kinase PAK 6 (Homo sapiens) (UniProt Q9NQU5); assay: Inhibition of T7 bacteriophage fused human PAK6 at 10 uM by KINOMEscan analysis relative to control
[17] = target: Cyclin-dependent kinase 15 (Homo sapiens) (UniProt Q96Q40); assay: Inhibition of T7 bacteriophage fused human PFTAIRE2 at 10 uM by KINOMEscan analysis relative to control
[18] = target: Phosphatidylinositol 4,5-bisphosphate 3-kinase catalytic subunit gamma isoform (Homo sapiens) (UniProt P48736); assay: Inhibition of T7 bacteriophage fused human PIK3CG at 10 uM by KINOMEscan analysis relative to control
[19] = target: Serine/threonine-protein kinase pim-2 (Homo sapiens) (UniProt Q9P1W9); assay: Inhibition of T7 bacteriophage fused human PIM2 at 10 uM by KINOMEscan analysis relative to control
[20] = target: Serine/threonine-protein kinase RIO3 (Homo sapiens) (UniProt O14730); assay: Inhibition of T7 bacteriophage fused human RIOK3 at 10 uM by KINOMEscan analysis relative to control
[21] = target: Receptor-interacting serine/threonine-protein kinase 2 (Homo sapiens) (UniProt O43353); assay: Inhibition of T7 bacteriophage fused human RIPK2 at 10 uM by KINOMEscan analysis relative to control
[22] = target: Serine/threonine-protein kinase TAO2 (Homo sapiens) (UniProt Q9UL54); assay: Inhibition of T7 bacteriophage fused human TAOK2 at 10 uM by KINOMEscan analysis relative to control
[23] = target: Muscle, skeletal receptor tyrosine-protein kinase (Homo sapiens) (UniProt O15146); assay: Inhibition of T7 bacteriophage fused human MUSK at 10 uM by KINOMEscan analysis relative to control; values are per cent of control
[24] = target: Death-associated protein kinase 3 (Homo sapiens) (UniProt O43293); assay: Inhibition of T7 bacteriophage fused human DAPK3 at 10 uM by KINOMEscan analysis relative to control; values are per cent of control
[25] = target: Ephrin type-B receptor 1 (Homo sapiens) (UniProt P54762); assay: Inhibition of T7 bacteriophage fused human EPHB1 at 10 uM by KINOMEscan analysis relative to control; values are per cent of control
[26] = target: Homeodomain-interacting protein kinase 3 (Homo sapiens) (UniProt Q9H422); assay: Inhibition of T7 bacteriophage fused human HIPK3 at 10 uM by KINOMEscan analysis relative to control; values are per cent of control
[27] = target: Dual specificity tyrosine-phosphorylation-regulated kinase 1B (Homo sapiens) (UniProt Q9Y463); assay: Inhibition of T7 bacteriophage fused human DYRK1B at 10 uM by KINOMEscan analysis relative to control; values are per cent of control
[28] = target: Mitogen-activated protein kinase 11 (Homo sapiens) (UniProt Q15759); assay: Inhibition of T7 bacteriophage fused human p38-beta at 10 uM by KINOMEscan analysis relative to control; values are per cent of control
[29] = test system: Epidermal growth factor receptor (Homo sapiens), P00533 [T790M]; assay: Inhibition of T7 bacteriophage fused human EGFR T790M mutant at 10 uM by KINOMEscan analysis relative to control; values are per cent of control
[30] = target: Tyrosine-protein kinase JAK2 (Homo sapiens) (UniProt O60674); assay: Inhibition of T7 bacteriophage fused human JAK2 JH1catalytic domain at 10 uM by KINOMEscan analysis relative to control; values are per cent of control

Sequence of BMP-2-inducible protein kinase (Homo sapiens) (Q9NSY1 whole entry, looked up, the tested form may be a part): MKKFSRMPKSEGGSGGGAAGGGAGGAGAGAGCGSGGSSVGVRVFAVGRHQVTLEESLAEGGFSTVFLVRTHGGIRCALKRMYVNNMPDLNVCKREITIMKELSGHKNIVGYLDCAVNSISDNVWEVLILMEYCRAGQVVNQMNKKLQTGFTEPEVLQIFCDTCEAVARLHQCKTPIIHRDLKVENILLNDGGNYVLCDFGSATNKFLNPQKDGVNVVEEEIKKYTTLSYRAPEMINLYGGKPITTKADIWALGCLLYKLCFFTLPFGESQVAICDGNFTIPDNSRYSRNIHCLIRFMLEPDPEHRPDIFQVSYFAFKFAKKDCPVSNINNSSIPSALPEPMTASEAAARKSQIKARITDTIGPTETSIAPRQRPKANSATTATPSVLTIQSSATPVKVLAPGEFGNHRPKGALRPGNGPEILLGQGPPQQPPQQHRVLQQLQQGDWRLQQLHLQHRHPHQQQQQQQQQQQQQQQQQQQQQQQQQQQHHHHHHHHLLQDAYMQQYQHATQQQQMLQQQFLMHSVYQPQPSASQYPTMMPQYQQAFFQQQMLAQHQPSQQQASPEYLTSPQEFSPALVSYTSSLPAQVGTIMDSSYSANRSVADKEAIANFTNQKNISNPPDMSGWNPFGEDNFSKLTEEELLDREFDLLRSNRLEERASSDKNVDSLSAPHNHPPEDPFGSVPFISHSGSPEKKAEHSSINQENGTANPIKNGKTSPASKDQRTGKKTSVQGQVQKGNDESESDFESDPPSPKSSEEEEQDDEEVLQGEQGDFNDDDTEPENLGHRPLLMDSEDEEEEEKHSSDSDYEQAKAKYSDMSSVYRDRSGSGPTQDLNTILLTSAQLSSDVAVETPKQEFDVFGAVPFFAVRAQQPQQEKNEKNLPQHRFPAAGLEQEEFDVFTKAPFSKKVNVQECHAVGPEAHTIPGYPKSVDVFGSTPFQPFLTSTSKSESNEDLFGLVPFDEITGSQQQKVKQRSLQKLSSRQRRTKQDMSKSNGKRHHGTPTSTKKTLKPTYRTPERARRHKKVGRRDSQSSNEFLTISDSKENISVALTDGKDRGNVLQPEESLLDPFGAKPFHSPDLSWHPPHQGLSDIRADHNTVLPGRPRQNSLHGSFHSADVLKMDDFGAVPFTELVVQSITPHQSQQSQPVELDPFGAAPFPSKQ
Sequence of Activin receptor type-1-like (Homo sapiens) (P37023 whole entry, the tested form may be a part): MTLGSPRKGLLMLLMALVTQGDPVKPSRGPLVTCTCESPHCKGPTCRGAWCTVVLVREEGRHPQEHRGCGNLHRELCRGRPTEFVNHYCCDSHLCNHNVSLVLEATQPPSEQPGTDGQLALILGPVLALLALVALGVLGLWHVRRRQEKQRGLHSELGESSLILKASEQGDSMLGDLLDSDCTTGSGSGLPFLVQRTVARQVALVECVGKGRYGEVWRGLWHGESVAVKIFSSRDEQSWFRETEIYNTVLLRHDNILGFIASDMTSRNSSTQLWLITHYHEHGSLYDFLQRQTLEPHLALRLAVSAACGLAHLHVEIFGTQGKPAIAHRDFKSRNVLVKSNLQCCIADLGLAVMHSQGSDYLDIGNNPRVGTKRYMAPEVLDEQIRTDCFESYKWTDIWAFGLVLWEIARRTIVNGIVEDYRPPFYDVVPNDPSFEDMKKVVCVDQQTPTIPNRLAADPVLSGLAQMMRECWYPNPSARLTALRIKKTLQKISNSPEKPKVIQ
Sequence of Serine/threonine-protein kinase TAO2 (Homo sapiens) (Q9UL54 whole entry, the tested form may be a part): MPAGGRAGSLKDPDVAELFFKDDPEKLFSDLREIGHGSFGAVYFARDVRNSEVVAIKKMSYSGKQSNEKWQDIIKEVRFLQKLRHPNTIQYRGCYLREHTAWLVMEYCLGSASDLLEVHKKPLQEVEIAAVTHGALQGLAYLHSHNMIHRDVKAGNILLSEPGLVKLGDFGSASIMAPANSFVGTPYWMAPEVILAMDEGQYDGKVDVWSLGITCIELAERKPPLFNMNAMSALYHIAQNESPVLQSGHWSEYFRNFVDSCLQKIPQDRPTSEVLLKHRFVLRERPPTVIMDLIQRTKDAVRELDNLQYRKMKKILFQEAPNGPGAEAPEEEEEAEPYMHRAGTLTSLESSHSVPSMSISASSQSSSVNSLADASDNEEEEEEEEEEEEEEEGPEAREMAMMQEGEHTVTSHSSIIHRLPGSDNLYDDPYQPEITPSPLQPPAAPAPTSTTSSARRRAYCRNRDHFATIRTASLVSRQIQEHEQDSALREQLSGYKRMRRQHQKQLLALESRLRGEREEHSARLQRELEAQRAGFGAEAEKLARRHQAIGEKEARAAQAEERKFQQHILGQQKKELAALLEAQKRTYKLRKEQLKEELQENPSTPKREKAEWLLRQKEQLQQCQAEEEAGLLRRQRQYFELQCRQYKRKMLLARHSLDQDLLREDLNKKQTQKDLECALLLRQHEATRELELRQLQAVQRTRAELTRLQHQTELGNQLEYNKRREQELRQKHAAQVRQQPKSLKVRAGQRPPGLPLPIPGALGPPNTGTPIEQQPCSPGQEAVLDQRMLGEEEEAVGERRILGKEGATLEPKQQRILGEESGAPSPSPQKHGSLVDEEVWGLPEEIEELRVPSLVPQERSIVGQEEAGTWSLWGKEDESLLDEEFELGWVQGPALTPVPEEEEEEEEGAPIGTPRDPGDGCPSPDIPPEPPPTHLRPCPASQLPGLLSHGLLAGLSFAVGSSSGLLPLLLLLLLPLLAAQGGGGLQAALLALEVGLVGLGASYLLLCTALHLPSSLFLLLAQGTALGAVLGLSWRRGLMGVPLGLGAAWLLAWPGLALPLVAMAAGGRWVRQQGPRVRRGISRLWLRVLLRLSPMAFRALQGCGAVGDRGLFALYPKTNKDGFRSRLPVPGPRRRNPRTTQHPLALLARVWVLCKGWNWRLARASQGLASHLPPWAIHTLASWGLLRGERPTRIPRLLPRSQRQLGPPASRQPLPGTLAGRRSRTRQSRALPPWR
Sequence of Mitogen-activated protein kinase 11 (Homo sapiens) (Q15759 whole entry, the tested form may be a part): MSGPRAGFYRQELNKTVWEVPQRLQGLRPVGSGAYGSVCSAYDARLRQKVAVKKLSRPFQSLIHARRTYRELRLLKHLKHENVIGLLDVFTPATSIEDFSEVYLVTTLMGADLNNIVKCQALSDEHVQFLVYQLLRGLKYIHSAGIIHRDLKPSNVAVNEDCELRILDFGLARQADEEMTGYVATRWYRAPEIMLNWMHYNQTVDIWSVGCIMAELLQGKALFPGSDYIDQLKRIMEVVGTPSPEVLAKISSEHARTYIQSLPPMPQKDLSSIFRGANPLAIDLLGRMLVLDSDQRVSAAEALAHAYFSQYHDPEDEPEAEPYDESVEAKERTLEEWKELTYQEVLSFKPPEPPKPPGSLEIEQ
Sequence of NUAK family SNF1-like kinase 1 (Homo sapiens) (O60285 whole entry, the tested form may be a part): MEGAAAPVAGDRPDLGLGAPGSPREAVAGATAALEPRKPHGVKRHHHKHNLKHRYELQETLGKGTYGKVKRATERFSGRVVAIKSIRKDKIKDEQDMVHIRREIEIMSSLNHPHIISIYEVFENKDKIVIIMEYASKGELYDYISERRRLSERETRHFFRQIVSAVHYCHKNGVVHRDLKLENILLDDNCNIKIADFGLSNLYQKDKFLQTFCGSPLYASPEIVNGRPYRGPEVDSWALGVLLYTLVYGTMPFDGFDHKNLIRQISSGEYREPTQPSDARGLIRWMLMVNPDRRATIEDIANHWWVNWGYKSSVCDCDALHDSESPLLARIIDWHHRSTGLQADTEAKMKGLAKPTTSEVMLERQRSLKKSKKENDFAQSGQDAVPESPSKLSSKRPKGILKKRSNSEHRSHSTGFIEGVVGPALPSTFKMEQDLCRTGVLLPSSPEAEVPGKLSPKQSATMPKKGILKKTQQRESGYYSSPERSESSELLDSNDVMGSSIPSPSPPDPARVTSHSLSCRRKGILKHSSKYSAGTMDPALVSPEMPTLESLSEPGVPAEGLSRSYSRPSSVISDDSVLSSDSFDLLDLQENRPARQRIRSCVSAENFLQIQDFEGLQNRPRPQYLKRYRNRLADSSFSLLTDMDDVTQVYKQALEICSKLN
Sequence of Myotonin-protein kinase (Homo sapiens) (Q09013 whole entry, the tested form may be a part): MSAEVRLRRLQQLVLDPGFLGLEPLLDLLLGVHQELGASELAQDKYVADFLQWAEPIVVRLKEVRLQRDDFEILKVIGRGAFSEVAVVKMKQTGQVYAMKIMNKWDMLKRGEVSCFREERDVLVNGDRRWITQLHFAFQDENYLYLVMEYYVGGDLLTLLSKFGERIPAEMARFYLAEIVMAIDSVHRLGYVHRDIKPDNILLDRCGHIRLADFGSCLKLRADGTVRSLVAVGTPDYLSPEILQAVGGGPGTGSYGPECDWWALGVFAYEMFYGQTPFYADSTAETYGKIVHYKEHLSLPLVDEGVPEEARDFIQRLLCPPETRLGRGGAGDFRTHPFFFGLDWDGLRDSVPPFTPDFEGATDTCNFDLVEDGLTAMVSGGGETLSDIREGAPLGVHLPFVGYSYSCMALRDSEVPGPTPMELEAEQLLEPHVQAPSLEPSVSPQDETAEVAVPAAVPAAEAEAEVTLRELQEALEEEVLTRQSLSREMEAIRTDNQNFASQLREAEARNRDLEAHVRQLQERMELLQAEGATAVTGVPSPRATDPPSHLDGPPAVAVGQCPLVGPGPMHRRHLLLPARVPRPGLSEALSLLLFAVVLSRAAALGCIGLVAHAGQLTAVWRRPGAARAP
Sequence of Cyclin-dependent kinase 15 (Homo sapiens) (Q96Q40 whole entry, the tested form may be a part, canonical isoform): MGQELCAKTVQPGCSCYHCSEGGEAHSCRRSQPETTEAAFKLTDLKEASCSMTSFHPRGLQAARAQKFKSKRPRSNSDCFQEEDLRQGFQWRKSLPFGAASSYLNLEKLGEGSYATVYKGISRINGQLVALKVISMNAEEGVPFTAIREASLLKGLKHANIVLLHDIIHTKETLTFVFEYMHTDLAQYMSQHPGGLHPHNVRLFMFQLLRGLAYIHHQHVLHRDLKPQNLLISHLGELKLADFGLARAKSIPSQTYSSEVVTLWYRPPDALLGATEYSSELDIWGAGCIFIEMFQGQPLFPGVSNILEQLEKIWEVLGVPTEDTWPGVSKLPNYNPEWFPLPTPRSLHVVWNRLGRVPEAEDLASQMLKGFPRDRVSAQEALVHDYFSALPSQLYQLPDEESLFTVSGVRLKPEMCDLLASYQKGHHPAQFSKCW

COc1cc(N2CCC(N3CCN(C)CC3)CC2)ccc1Nc1ncc2c(n1)N(C)c1ccccc1C(=O)N2C
inhibition [1]: 89%
inhibition [2]: 100%
inhibition [3]: 94%
inhibition [4]: 47%
inhibition [5]: 100%
inhibition [6]: 69%
inhibition [7]: 54%
inhibition [8]: 100%
inhibition [9]: 100%
inhibition [10]: 89%
inhibition [11]: 100%
inhibition [12]: 100%
inhibition [13]: 100%
inhibition [14]: 100%
inhibition [15]: 100%
inhibition [16]: 98%
inhibition [17]: 100%
inhibition [18]: 15%
inhibition [19]: 100%
inhibition [20]: 85%
inhibition [21]: 100%
inhibition [22]: 65%
residual activity [23]: 99%
residual activity [24]: 67%
residual activity [25]: 98%
residual activity [26]: 89%
residual activity [27]: 94%
residual activity [28]: 60%
residual activity [29]: 88%
residual activity [30]: 70%
